{
  "source": "patent US6153634A",
  "about": "“4,5-azolo-oxindoles” (Hoffmann-La Roche Inc., priority 1999, dated 2000)",
  "data": [
    {"tested_on": "MDA-MB-435", "assay": "Cell-based antiproliferative (MTT) assay, MDA-MB-435 breast carcinoma", "details": "Homo sapiens, MDA-MB-435, 120 h, cell line MDA-MB435 (breast), 5 days post addition, one experiment mostly, average where repeated", "protocol": "The estrogen receptor negative epithelial breast carcinoma line (MDA-MB-435) was purchased from American Type Cell Culture Collection (ATCC; Rockville, Md.) and was grown in the medium recommended by ATCC. For analysis of the effect of the test compounds on growth of these cells, the cells were plated at 2000 cells per well in a 96-well tissue culture plate, and were incubated overnight at 37° C. with 5% CO2. The next day, the test compounds were dissolved in 100% dimethyl sulfoxide (DMSO) to yield a 10 mM stock solution. Each compound was diluted with sterile medium to 1 mM in a sufficient quantity to yield a final concentration of 120 μM. The compounds were then serially diluted in medium with 1.2% DMSO. […] The plates were returned to the incubator, and 5 days post addition of test compound, were analyzed as described below. […] Absorbencies were read in a microtiter plate reader (Molecular Dynamics) at a wavelength of 570 nm with a 650 nm reference. Percent inhibition was calculated by subtracting the absorbance of the blank (no cell) wells from all wells, then subtracting the division of the average absorbance of each test duplicate by the average of the controls from 1.00. Inhibitory concentrations (IC50) were determined from the linear regression of a plot of the logarithm of the concentration versus the percent inhibition.", "units": {"IC50": "µM"}, "values": [
      {"smiles": "Cc1nc[nH]c1/C=C1\\C(=O)Nc2ccc3[nH]cnc3c21", "note": "[SS, (Z)-8-[(4-Methyl-1H-imidazol-5-yl)methylene]-3,6,7,8-tetrahydro-pyrrolo[3,2-e]benzimidazol-7-one]", "IC50": "< 3.5"}
    ]},
    {"molecular_target": "T1, human Cyclin E/CDK2 (Homo sapiens, UniProt P24941)", "T1 construct": "made in house; host or cells: insect cells", "assay": "CDK2 FlashPlate Assay (inhibition of Rb phosphorylation)", "type": "biochemical", "details": "Concentration 0.5 μM; Cyclin E/CDK2, Rb-coated FlashPlates", "protocol": "(§1) To determine inhibition of CDK2 activity, purified recombinant retinoblastoma (Rb) protein was coated on 96 well FlashPlates (New England Nuclear, Boston, Mass.). Rb is a natural substrate for phosphorylation by CDK2 (Herwig and Strauss Eurr. J. Biochem., Vol. 246 (1997) pp. 581-601 and references therein). Recombinant active human Cyclin E/CDK2 complexes were partially purified from extracts of insect cells. The active Cyclin E/CDK2 was added to the Rb-coated FlashPlates along with ^33 P-ATP and dilutions of test compounds. Plates were incubated for 25 minutes at room temperature with shaking, then washed and counted in the Topcount scintillation counter (Packard Instrument Co., Downers Grove, Ill.). Dilutions of test compounds were tested in duplicate in each assay. The percent inhibition of Rb phosphorylation, which is a measure of the inhibition of CDK2 activity, was determined according to the following formula: [formula] where \"test compound\" refers to the average counts per minute of the test duplicates, \"nonspecific\" refers to the average counts per minute when no Cyclin E/CDK2 was added, and \"total\" refers to the average counts per minute when no compound was added.", "units": {"inhibition at 0.5 µM": "%"}, "values": [
      {"smiles": "COc1cc[nH]c1/C=C1\\C(=O)Nc2ccc3[nH]c(NCc4cccc5ccccc45)nc3c21", "note": "[WW, (Z)-8-[(3-Methoxy-1H-pyrrol-2-yl)methylene]-2-[N-(1-naphthalenyl)methylamino]-3,6,7,8-tetrahydro-pyrrolo[3,2-e]benzimidazol-7-one]", "inhibition at 0.5 µM": "< 50"},
      {"smiles": "COc1cc[nH]c1/C=C1\\C(=O)Nc2ccc3[nH]c(NCc4ccc(F)cc4)nc3c21", "note": "[FF, (Z)-2-[N-[(4-Fluorophenyl)methyl]amino]-8-[(3-methoxy-1H-pyrrol-2-yl)methylene]-3,6,7,8-tetrahydro-pyrrolo[3,2-e]benzimidazol-7-one]", "inhibition at 0.5 µM": "> 50"},
      {"smiles": "COc1ccc(Nc2nc3c4c(ccc3[nH]2)NC(=O)/C4=C\\c2[nH]ccc2OC)cc1", "note": "[Z, (Z)-2-[N-(4-Methoxyphenyl)amino]-8-[(3-methoxy-1H-pyrrol-2-yl)methylene]-3,6,7,8-tetrahydro-pyrrolo[3,2-e]benzimidazol-7-one]", "inhibition at 0.5 µM": "< 50"},
      {"smiles": "COc1cc[nH]c1/C=C1\\C(=O)Nc2ccc3[nH]c(Nc4ccc5c(c4)CCC5)nc3c21", "note": "[YY, (Z)-2-[N-(2,3-Dihydro-1H-inden-5-yl)amino]-8-[(3-methoxy-1H-pyrrol-2-yl)methylene]-3,6,7,8-tetrahydro-pyrrolo[3,2-e]benzimidazol-7-one]", "inhibition at 0.5 µM": "< 50"},
      {"smiles": "CCOC(=O)c1ccc(Nc2nc3c4c(ccc3[nH]2)NC(=O)/C4=C\\c2[nH]ccc2OC)cc1", "note": "[CC, (Z)-4-[[8-[(3-Methoxy-1H-pyrrol-2-yl)methylene]-7-oxo-3,6,7,8-tetrahydro-imidazo[4,5-e]indol-2-yl]amino]-benzoic acid ethyl ester]", "inhibition at 0.5 µM": "< 50"},
      {"smiles": "COc1ccc(CCNc2nc3c4c(ccc3[nH]2)NC(=O)/C4=C\\c2[nH]ccc2OC)cc1OC", "note": "[GG, (Z)-2-[N-[2-(3,4-Dimethoxyphenyl)ethyl]amino]-8-[(3-methoxy-1H-pyrrol-2-yl)methylene]-3,6,7,8-tetrahydro-pyrrolo[3,2-e]benzimidazol-7-one]", "inhibition at 0.5 µM": "< 50"},
      {"smiles": "COc1cc[nH]c1/C=C1\\C(=O)Nc2ccc([N+](=O)[O-])c(N=[N+]=[N-])c21", "note": "[M, (Z)-4-Azido-1,3-dihydro-3-[(3-methoxy-1H-pyrrol-2-yl)methylene]-5-nitro-2H-indol-2-one]", "inhibition at 0.5 µM": "> 50"},
      {"smiles": "COc1ccc(Nc2nc3c4c(ccc3[nH]2)NC(=O)/C4=C\\c2[nH]ccc2OC)cc1OC", "note": "[Y, (Z)-2-[N-(3,4-Dimethoxyphenyl)amino]-8-[(3-methoxy-1H-pyrrol-2-yl)methylene]-3,6,7,8-tetrahydro-pyrrolo[3,2-e]benzimidazol-7-one]", "inhibition at 0.5 µM": "< 50"},
      {"smiles": "COc1cc[nH]c1/C=C1\\C(=O)Nc2ccc3[nH]c(NCCCc4ccccc4)nc3c21", "note": "[XX, (Z)-8-[(3-Methoxy-1H-pyrrol-2-yl)methylene]-2-[N-(3-phenylpropyl)amino]-3,6,7,8-tetrahydro-pyrrolo[3,2-e]benzimidazol-7-one]", "inhibition at 0.5 µM": "< 50"},
      {"smiles": "COc1cc[nH]c1/C=C1\\C(=O)Nc2ccc3[nH]c(Nc4cccc5ccccc45)nc3c21", "note": "[MM, (Z)-8-[(3-Methoxy-1H-pyrrol-2-yl)methylene]-2-[N-(1-naphthyl)amino]-3,6,7,8-tetrahydro-pyrrolo[3,2-e]benzimidazol-7-one]", "inhibition at 0.5 µM": "> 50"},
      {"smiles": "COC(=O)c1ccc(Nc2nc3c4c(ccc3[nH]2)NC(=O)/C4=C\\c2[nH]ccc2OC)cc1", "note": "[EE, (Z)-4-[[8-[(3-Methoxy-1H-pyrrol-2-yl)methylene]-7-oxo-3,6,7,8-tetrahydro-imidazo[4,5-e]indol-2-yl]amino]-benzoic acid methyl ester]", "inhibition at 0.5 µM": "< 50"},
      {"smiles": "COc1cc[nH]c1/C=C1\\C(=O)Nc2ccc3[nH]c(Nc4cccc(C(C)=O)c4)nc3c21", "note": "[BB, (Z)-2-[N-(3-Acetylphenyl)amino]-8-[(3-methoxy-1H-pyrrol-2-yl)methylene]-3,6,7,8-tetrahydro-pyrrolo[3,2-e]benzimidazol-7-one]", "inhibition at 0.5 µM": "< 50"},
      {"smiles": "COc1cc[nH]c1/C=C1\\C(=O)Nc2ccc3[nH]c(NCCN4CCCCC4)nc3c21", "note": "[NN, (Z)-8-[(3-Methoxy-1H-pyrrol-2-yl)methylene]-2-[N-[2-(N-piperidinyl)ethyl]-amino]-3,6,7,8-tetrahydro-pyrrolo[3,2-e]benzimidazol-7-one]", "inhibition at 0.5 µM": "> 50"},
      {"smiles": "COc1cc[nH]c1/C=C1\\C(=O)Nc2ccc3[nH]c(NCCCCc4ccccc4)nc3c21", "note": "[JJ, (Z)-8-[(3-Methoxy-1H-pyrrol-2-yl)methylene]-2-[N-(4-phenylbutyl)amino]-3,6,7,8-tetrahydro-pyrrolo[3,2-e]benzimidazol-7-one]", "inhibition at 0.5 µM": "< 50"},
      {"smiles": "COc1ccccc1Nc1nc2c3c(ccc2[nH]1)NC(=O)/C3=C\\c1[nH]ccc1OC", "note": "[II, (Z)-2-[N-(2-Methoxyphenyl)amino]-8-[(3-methoxy-1H-pyrrol-2-yl)methylene]-3,6,7,8-tetrahydro-pyrrolo[3,2-e]benzimidazol-7-one]", "inhibition at 0.5 µM": "< 50"},
      {"smiles": "CCOC(=O)CCCNc1nc2c3c(ccc2[nH]1)NC(=O)/C3=C\\c1[nH]ccc1OC", "note": "[LL, (Z)-4-[[8-[(3-Methoxy-1H-pyrrol-2-yl)methylene]-7-oxo-3,6,7,8-tetrahydro-imidazo[4,5-e]indol-2-yl]amino]-butanoic acid ethyl ester]", "inhibition at 0.5 µM": "> 50"},
      {"smiles": "COc1cc[nH]c1/C=C1\\C(=O)Nc2ccc3[nH]c(NCc4ccc5c(c4)OCO5)nc3c21", "note": "[VV, (Z)-2-[N-(1,3-Benzodioxol-5-yl)methylamino]-8-[(3-methoxy-1H-pyrrol-2-yl)methylene]-3,6,7,8-tetrahydro-pyrrolo[3,2-e]benzimidazol-7-one]", "inhibition at 0.5 µM": "< 50"}
    ]},
    {"molecular_target": "T1, human Cyclin E/CDK2", "assay": "CDK2 FlashPlate Assay (inhibition of Rb phosphorylation)", "type": "biochemical", "details": "Cyclin E/CDK2, Rb-coated FlashPlates, 33P-ATP, 25 min room temperature", "protocol": "as §1", "units": {"IC50": "µM"}, "values": [
      {"smiles": "COc1cc[nH]c1/C=C1\\C(=O)Nc2ccc3[nH]c(-c4ccc(C(=O)O)cc4)nc3c21", "note": "[R]", "IC50": "< 3.5"}
    ]}
  ]
}
